Literature values, collected in US20040058899A1, “Use of epothilones and analogs in conjunction with ophthalmic surgery” (priority 2002, published 2004).

System: tumor-implanted mice
Details: for toxic effects / animal deaths: comparably effective doses

Structure (SMILES) | toxic effects / animal deaths | tumor regression
COc1cccc2c1C(=O)c1c(O)c3c(c(O)c1C2=O)C[C@@](O)(C(=O)CO)C[C@@H]3O[C@H]1C[C@H](N)[C@H](O)[C@H](C)O1 [adriamycin] | caused some animal deaths | –
C/C1=C/C[C@@H](/C(C)=C/c2csc(C)n2)OC(=O)C[C@H](O)C(C)(C)C(=O)[C@H](C)[C@@H](O)[C@@H](C)CCC1 [deoxyepothilone B] | without any noticeable toxic effects | complete tumor regression
CC(=O)O[C@H]1C(=O)[C@@]2(C)[C@H]([C@H](OC(=O)c3ccccc3)[C@]3(O)C[C@H](OC(=O)[C@H](O)[C@@H](NC(=O)c4ccccc4)c4ccccc4)C(C)=C1C3(C)C)[C@]1(OC(C)=O)CO[C@@H]1C[C@@H]2O [paclitaxel] | caused some animal deaths | –
